Results published in US9504660B2, “Retinaldehyde mimetics and inhibitors of retinaldehyde dehydrogenase I in the treatment of disorders” (THE BRIGHAM AND WOMEN'S HOSPITAL, INC., priority 2012, dated 2016).

Legend:
[1] = tested on: RXRa ligand binding domain (LBD); assay: Cell-free TR-FRET assay, PGC-1a recruitment to RXRa LBD; assay type: biochemical
[2] = tested on: UCP-1; assay: UCP-1 gene expression in 10T1/2 cells during adipogenic differentiation; assay type: cell-based, murine; conditions: for effect on Rald-mediated UCP-1 expression: antagonist with Rald
Method: (§1) C3H10T1/2, isolated human stromal-vascular cells and Aldh1a1^−/− MEFs were cultured and differentiated as previously described^8. Briefly, cells were grown to confluence in DMEM, 10% fetal bovine serum (FBS) and 1% penicillin/streptomycin followed by standard adipogenic induction (20 nM insulin, 1 nM T3, 0.5 mM isobutylmethylxanthine, […], 0.125 mM indomethacin) and stimulation with retinoids, retinoid antagonists or vehicle (DMSO) as indicated. After a 48 h induction phase, growth media was supplemented with insulin, T3, and indicated retinoids which were changed every other day up to day 6.
(§2) Total RNA was extracted (RNeasy, Qiagen, Hi[den, Germany), DNase-treated (Qiagen), and reverse-transcribed to cDNA. Gene expression, normalized to 36B4, was analyzed by quantitative real-time RT-PCR (Sybr Green, 96 well plates) using a MyiQ cycler (Bio-Rad, Hercules, Calif.). Primer sequences are available upon request.

[3] = tested on: UCP-1; assay: UCP-1 mRNA in shAldh1a1-transfected 10T1/2 cells; assay type: cell-based, murine; conditions: Rald stimulation (1 pM) in shAldh1a1-treated 10T1/2 cells
Method: as §1
Mission® shRNA constructs targeting Aldh1a1 and a non-targeting control shRNA were purchased from Sigma. To generate lentivirus particles, shRNA constructs were transfected into HEK293TN cells (SA Biosciences, Frederick, Md.) along with the packaging vectors psPAX and pM2DG. After 72 h, virus-containing supernatant was precipitated using polyethylene glycol (SA Biosciences) and concentrated in PBS (30×). […]
(§3) Total RNA was extracted (RNeasy, Qiagen, Hi[den, Germany), DNase-treated (Qiagen), and reverse-transcribed to cDNA. Gene expression, normalized to 36B4, was analyzed by quantitative real-time RT-PCR (Sybr Green, 96 well plates) using a MyiQ cycler (Bio-Rad, Hercules, Calif.). […]

[4] = molecular target: T1, RARa ligand binding domain (LBD) (Homo sapiens, UniProt P10276); assay: Cell-free TR-FRET assay, PGC-1a recruitment to RARa LBD; assay type: biochemical
T1 construct: purchased Invitrogen
T1 sequence (P10276 183-417 limits assumed): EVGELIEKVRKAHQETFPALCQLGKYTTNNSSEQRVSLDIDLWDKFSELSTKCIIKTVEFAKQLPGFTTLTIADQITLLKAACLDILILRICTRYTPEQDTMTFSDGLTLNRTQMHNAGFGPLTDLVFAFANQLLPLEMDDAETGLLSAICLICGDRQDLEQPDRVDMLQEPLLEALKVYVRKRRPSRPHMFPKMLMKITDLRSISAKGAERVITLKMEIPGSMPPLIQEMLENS
Method: Lanthascreen” TR-FRET RARa and RXR13 coactivator assays (Invitrogen) were performed as per manufacturer protocol using a PerkinElmer (Waltham, Mass.) EnVision™ fluorescence plate reader.

[5] = tested on: UCP-1 promoter; assay: UCP-1 promoter luciferase reporter in undifferentiated 10T1/2 cells; assay type: cell-based, murine; conditions: 24 h, increasing concentrations / 1 pM
Method: (§4) Cell lysates were harvested 48 h post transfection and luciferase activity quantified by standard luminometer assay and normalized to 3-galactosidase.

[6] = tested on: UCP-1 promoter region; assay: Chromatin immunoprecipitation (ChIP) at the UCP-1 promoter region in 10T1/2 cells; assay type: cell-based, mouse
Method: ChIP was performed in Rald versus vehicle stimulated C3H10T1/2 adipocytes using EZ-Magna ChIP™ kit following manufacturer's instructions (Millipore, Billerica, Mass.) and RARa, PGC-1a, or rabbit lgG antibodies as a negative control (all Santa Cruz). lmmunoprecipitated DNA was amplified by real-time PCR using primers specific for the mouse UCP-1 promoter region. Relative PGC-la and RARa occupancy at the UCP-1 promoter was determined normalized to input DNA

[7] = tested on: UCP-1; assay: UCP-1 gene expression in Aldh1a1-/- mouse embryonic fibroblast (MEF)-derived adipocytes; assay type: cell-based; conditions: stimulation 24 h, versus vehicle-treated cells
Method: (§5) Abdominal subcutaneous fat biopsies were obtained from a subject undergoing gastric bypass surgery who gave written informed consent. Fat biopsies were immediately washed with phosphate buffered saline (PBS), minced, and digested (1 mg/mi collagenase, 45 min, 37° C.) in DMEM containing 1% BSA. Digested tissues were filtered through sterile 150 µm nylon mesh and centrifuged (250 g, 5 min). The floating fractions containing adipocytes were discarded and they stromal-vascular fraction pellet was resuspended in erythrocyte lysis buffer (154 mM NH4CI, 10 mM KHCO3, 0.1 mM EDTA, 10 min) to remove red blood cells. The cells were further centrifuged at 500 g for 5 min, plated on a 24-well culture dish and grown, and differentiated to mature adipocytes as described below. MEFs were isolated from Aldh1a1^−/− embryos at embryonic day 14.5 using standard tech niques^43.
(§6) C3H10T1/2, isolated human stromal-vascular cells and Aldh1a1^−/− MEFs were cultured and differentiated as previously described^8. […]
as §3

[8] = tested on: RAR; conditions: ligand displacement assays, reference 37; cited from earlier work
[9] = tested on: 3T3-L1 cells; conditions: reference 16; cited from earlier work
[10] = tested on: retinoic acid response element (RARE) luciferase reporter; assay: RARE luciferase reporter in undifferentiated 10T1/2 cells; assay type: cell-based, murine; conditions: 24 h, concentration-dependent
Method: as §4

[11] = tested on: UCP-1; assay: UCP-1 expression in differentiating human stromal-vascular cells from subcutaneous fat biopsies; assay type: cell-based; conditions: 1 pM during differentiation
Method: as §5, §6, §3

[12] = Established diet-induced obesity in high-fat diet fed C57Bl/6J mice, body weight and fat depot mass; assay type: in vivo; conditions: HFD 8 weeks before treatment, continued HFD additional 9 weeks, compared to control ASO
Method: (§7) Aldh1a1-deficient (Aldh1a1^4″) mice were backcrossed to a C57BL/6J background (>20 generations). Mice were kept on a standard chow diet with a Vitamin A content of 15 IU/g or on high-fat diet (60% kcal fat, Research Diets, New Brunswick, N.J.) as indicated. Mice had free access to food and water except as indicated under Harvard Medical School Institutional Animal Care and Use Committee guidelines. Experiments were conducted using 12-14 week old female mice unless otherwise indicated.
(§8) An ASO targeting murine Aldh1a1 and a control ASO not hybridizing to any known murine RNA sequences were synthesized and purified by Isis Pharmaceuticals Inc. (Carlsbad, Calif.) as described previously^39. In vitro characterization including knockdown validation of the Aldh1a1 ASO was done in murine primary hepatocytes. ASOs (70 mg/kg/wk) were administered via intraperitoneal (i.p.) injection twice weekly.

[13] = Core body temperature under ambient and cold-induced conditions in ASO-treated mice; assay type: in vivo; conditions: versus Ctrl ASO-treated mice
Method: as §8
Core body temperature was assessed in mice as before^49,41. WT and Aldh1a1^−/− mice (12 week old, n=6/group) were anesthetized (Ketamine/Xylazine/Acepromazine, 100/10/3 mg/kg i.p.) and a telemetric temperature probe (E-mitter, MiniMitter, Bend, Oreg.) was implanted intra-abdominally. One week after surgery, mice were single-housed in open-circuit Oxymax chambers as part of the Comprehensive Lab Animal Monitoring System (CLAMS; Columbus Instruments, Columbus, Ohio)^42. Oxymax chambers were kept in a temperature enclosure with 12 h light/dark cycles at 23° C. and mice had ad-libitum access to food and water. After a 48 h acclimatization phase, core body temperature was recorded every 10 min for 48 h at ambient temperature (23° C.), followed by 48 h cold stimulation (4° C.). After sacrifice, fat depots were dissected and analyzed.

[14] = tested on: Aldh1a1; assay: Aldh1a1 expression in tissues of ASO-treated C57Bl/6J mice; assay type: in vivo
Method: as §7, §8, §2
Homogenized tissue was lysed in RIPA buffer (Boston Bioproducts, Ashland, Mass.) containing protease and phosphatase inhibitors. Standard Western blotting was performed using rabbit polyclonal antibody against UCP-1, rabbit monoclonal antibody against Aldh1a1 (both Abcam, Cambridge, UK), GAPDH and f3-Tubulin (both Santa Cruz Biotechnology). Proteins were detected by chemiluminescence (GE HealthCare Amersham, Amersham, UK).

[15] = Glucose and insulin tolerance tests in high-fat diet fed obese mice; assay type: in vivo; conditions: HFD obese mice, compared to control ASO
Method: as §8
Glucose (GTT) and insulin tolerance tests (ITT) were performed on mice after fasting (12 h and 6 h, respectively). Mice were injected i.p. either with D-glucose (Sigma, 0.75 g/kg body weight) or recombinant human regular insulin (0.5 U/kg body weight, Humulin R, Eli Lilly, Indianapolis, Ind.); blood glucose concentrations were measured periodically up to 120 min by glucometer (Abbott Laboratories, Abbott Park, Ill.).

[16] = tested on: UCP-1; assay: UCP-1 expression in fat depots of ASO-treated C57Bl/6J mice; assay type: in vivo; conditions: chow-fed mice, i.p. 35 mg/kg/dose twice a week for 6 weeks
Method: as §7, §8, §3
Homogenized tissue was lysed in RIPA buffer (Boston Bioproducts, Ashland, Mass.) containing protease and phosphatase inhibitors. […] Proteins were detected by chemiluminescence (GE HealthCare Amersham, Amersham, UK).

[17] = tested on: RXR; assay: 9cisRA-induced Cyp26a1 expression in 10T1/2 cells; assay type: cell-based, murine; conditions: data not shown
Method: as §1, §2

[18] = 1 pM during adipogenic differentiation
[19] = each 1 pM, differentiating 10T1/2 cells
[20] = chow-fed mice, i.p. 35 mg/kg/dose twice a week for 6 weeks, compared to Ctrl ASO

Molecule: CC1=C(/C=C/C(C)=C\C=C\C(C)=C\C(=O)O)C(C)(C)CCC1 [9cisRA, reference compound]
- PGC-1a recruitment to RXRa [1]: potently recruited

Molecule: CC1=C(/C=C/C(C)=C/C=C/C(C)=C/C=O)C(C)(C)CCC1 [Rald, all trans-Retinal]
- expression of other BAT markers including PGC-16, PRDM16, and Cidea [2, 18]: induced
- expression of the adipogenic gene aP2 [2, 18]: remained unaltered
- UCP-1 expression induction ([2]; 1 pM during adipogenic differentiation of 10T1/2 cells (white adipocytes)): 100 fold
- UCP-1 expression ([2]; co-stimulation with the Aldh inhibitor DEAB, each 1 pM, differentiating 10T1/2 cells): to the same extent as Rald alone
- UCP-1 mRNA expression increase [3]: 100 fold
- EC50 [4]: 82 nM
- PGC-1a recruitment to RARa [4]: effectively recruited
- UCP-1 promoter luciferase activity [5]: increased
- PGC-1a occupancy at the UCP-1 promoter region, enrichment ([6]; Rald 1 pM during adipocyte differentiation): 5 fold
- RARa signal at the UCP-1 promoter ([6]; after stimulation, versus basal conditions): did not increase further
- UCP-1 gene expression increase [7]: 40 fold
- binding to RAR [8]: can bind
- adipogenesis in 3T3-L1 cells [9]: inhibitor
- activity of a canonical RARE luciferase reporter [10]: significantly increased
- UCP-1 expression [11]: significantly increased
- PGC-1a recruitment to RXRa [1]: virtually no effect

Molecule: Cc1ccc(C2=CCC(C)(C)c3ccc(C#Cc4ccc(C(=O)O)cc4)cc32)cc1 [AGN193109, reference compound]
- effect on Rald-mediated UCP-1 expression [2, 19]: completely inhibited

Molecule: Aldh1a1 ASO: ASO targeting murine Aldh1a1, synthesized by Isis Pharmaceuticals; sequence AACACGACTATGCTGGTTAC (SEQ ID NO: 01) (listed as DNA, chemistry not given here)
- GWAT mass [12]: decreased
- weight gain in obese mice [12]: significantly limited
- core body temperature on cold exposure ([13]; 4° C., 48 h): protected significantly
- core body temperature at ambient temperature ([13]; 23° C.): did not differ
- Aldh1a1 expression in subcutaneous WAT ([14]; administered systemically): no effect
- Aldh1a1 expression in visceral WAT ([14]; administered systemically): decrease
- Aldh1a1 expression in SWAT, BAT, spleen, intestine, and skeletal muscle [14, 20]: remained unchanged
- Aldh1a1 mRNA and protein levels in liver and GWAT [14, 20]: significantly decreased
- glucose tolerance [15]: improved
- insulin tolerance [15]: improved
- UCP-1 expression in GWAT [16]: significantly increased
- UCP-1 expression in SWAT or BAT (significant increase) [16]: not

Molecule: CN1c2ccc([N+](=O)[O-])cc2N=C(c2ccc(C(=O)O)cc2)c2cc3c(cc21)C(C)(C)CCC3(C)C [HX531, reference compound]
- effect on Rald-mediated UCP-1 expression [2, 19]: did not alter
- 9cisRA-induced expression of the RA target gene Cyp26a1 [17]: significantly inhibit

Molecule: CC1=C(/C=C/C(C)=C/C=C/C(C)=C/CO)C(C)(C)CCC1 [retinol]
- UCP-1 promoter luciferase activity [5]: not and failed to induce
- binding to RAR [8]: can bind

Molecule: CC1=C(/C=C/C(C)=C/C=C/C(C)=C/C(=O)O)C(C)(C)CCC1 [ATRA, all-trans RA, reference compound]
- activity of a canonical RARE luciferase reporter [10]: significantly increased
